Like-named read-outs stand apart in the source and are kept apart here.
Assays:
Sigma receptor = target: T1, Sigma receptor (Cavia porcellus, UniProt Q60492); test: Sigma Receptor Binding Assay; assay type: guinea pig (male Hartley), brain membranes; details: 1 nM (+)-[3H]SKF 10,047, guinea pig brain membranes, pH 7.4, 45 min room temperature; read-out: Receptor Binding Affinity Sigma (Ki class)
T1 construct: Brain membranes were prepared by the method of Tam; from tissue; host or cells: guinea pig whole brain membranes
T1 sequence (Q60492 whole entry): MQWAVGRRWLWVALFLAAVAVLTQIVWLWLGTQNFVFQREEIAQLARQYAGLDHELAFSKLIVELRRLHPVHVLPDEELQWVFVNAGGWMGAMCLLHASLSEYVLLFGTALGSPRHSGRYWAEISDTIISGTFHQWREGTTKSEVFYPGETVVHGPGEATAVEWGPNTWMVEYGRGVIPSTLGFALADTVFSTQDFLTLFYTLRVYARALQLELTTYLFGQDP

Dopamine (D-2) receptor = target: T2, Dopamine (D-2) receptor (Cavia porcellus, UniProt H0VE83); test: Dopamine Receptor Binding; assay type: guinea pig, striatum membranes; details: 0.15 nM [3H]spiperone, guinea pig striatum, pH 7.7, 15 min 37° C.; read-out: Receptor Binding Affinity Dopamine (D-2) (Ki class)
T2 construct: Membranes were prepared from guinea pig striatum; from tissue; host or cells: guinea pig striatum membranes
T2 sequence (H0VE83 1-446): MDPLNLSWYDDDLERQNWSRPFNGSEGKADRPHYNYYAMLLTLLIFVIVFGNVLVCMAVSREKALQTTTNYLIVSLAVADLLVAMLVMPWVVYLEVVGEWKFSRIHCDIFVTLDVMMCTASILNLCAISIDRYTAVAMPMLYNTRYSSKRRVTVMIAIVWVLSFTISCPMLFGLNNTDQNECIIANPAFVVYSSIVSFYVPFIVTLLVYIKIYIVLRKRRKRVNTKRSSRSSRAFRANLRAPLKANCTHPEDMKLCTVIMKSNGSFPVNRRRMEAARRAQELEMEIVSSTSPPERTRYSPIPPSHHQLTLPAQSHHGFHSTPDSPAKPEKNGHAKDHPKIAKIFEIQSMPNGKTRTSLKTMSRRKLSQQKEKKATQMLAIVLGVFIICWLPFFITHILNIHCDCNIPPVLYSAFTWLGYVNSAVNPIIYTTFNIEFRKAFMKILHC

[1] = test system: isolation-induced aggression in mice; test: Isolation-Induced Aggression in Mice; assay type: in vivo, mouse (male Balb/c); details: for ED50: Mus musculus, po, 0.25 h, read-out: Inhibition of Isolation-induced Aggression (ED50 class)
[2] = test system: PCP-induced turning behavior in rats; test: PCP-Induced Turning Behavior in Rats; assay type: in vivo, rat (male Sprague-Dawley); details: for ED50: Rattus norvegicus, po, 6-OHDA lesioned rats, drug p.o. 20 min before, PCP 1.5 mg/kg s.c., read-out: Inhibition of PCP-induced Turning (ED50 class)
Method: Male Sprague-Dawley rats (CD/CR, Charles River), weighing 190-290 g, were used for surgery. In order to spare […] neurons, rats were injected with 25 mg/kg imipramine intraperitoneal (i.p.) 30 min before surgery. The rats were anesthetized with a 1:1.2 ratio mixture of Xylazine:Ketamine given 0.1 mL/100 g body weight intramuscular (i.m.). A Ringers-Wydaze (100:0.01) solution was given to prevent dehydration. Dopamine was depleted in the right striatum by injecting the neurotoxin 6-hydroxydopamine (6-OHDA) into the substantia nigra of the right cerebral hemisphere. Five mg of 6-OHDA was dissolved in 5 mL of a 0.04% ascorbic acid solution which had been deoxygenated with nitrogen. Five μL of the 6-OHDA solution was injected into the substantia nigra through a 26 gauge needle over a five min period. Stereotaxic injection coordinates were -2.5 mm posterior to bregma, -2.1 mm right of the midsagittal suture, and -8.6 mm below the skull surface with the incisor bar set at +5.0 mm. Following surgery they were given 10 days to recover while housed four per cage (45.0 L×20.0 H×26.0 W) with ALPHA-dri bedding and ad lib access to Pro-Lab rodent chow and deionized water. […] At all times they were housed in the animal care facility under a 12--12 hour light/dark cycle (light on at 6:00 h, light off at 18:00 h).
Rotation rate and direction were determined with Coulbourn Instruments Rotometry Monitors. Clockwise and counter clockwise rotations were recorded at 30 and 60 min intervals. The rats were examined for correct lesion location by testing for rotational activity induced by subcutaneous (s.c.) injections of 3.0 mg/kg D-amphetamine SO4, and 2.0 mg/kg PCP HCl, respectively. These drugs were administered in the following sequence: Amphetamine was given 30 sec before testing. […]
The data was analyzed with an analysis of variance statistical test, and individual comparisons of each dose of test drug to control were made with Dunnett's multiple range test. The ED50 was calculated with a Litchfield and Wilcoxon test using percent of control values.

catalepsy in rats [3] = details: rat, in vivo
in vivo = details: rat, po
catalepsy in rats [4] = test: Induction of Catalepsy; details: statement on Table III

Row | Ki (Sigma receptor) | Ki (Dopamine (D-2) receptor) | Structure (SMILES) | ED50 ([1]; mice, p.o., 15 min after dosing) | ED50 [2] | producing catalepsy (catalepsy in rats [3]) | ED50 (in vivo) | ED50 [1] | inhibiting the isolation-induced aggressive behavior ([1]; statement on Table II) | inhibiting PCP-induced turning behavior ([2]; statement on Table III, rats) | producing catalepsy (catalepsy in rats [4])
1 | 0.001 to 0.03 µM | > 0.5 µM | O=C1[C@H]2CCCC[C@H]2C(=O)N1CC1CCN(CCc2ccccc2)CC1 [Example 3, 2-[1-(2-Phenylethyl)-4-piperidinylmethyl]-cis-3a,4,5,6,7,7a-hexahydro-1H-isoindole-1,3(2H)-dione] | 11 to 20 mg/kg | 21 to 70 mg/kg | does not produce catalepsy | > 70 mg/kg | – | – | – | –
2 | – | – | O=C(CCCN1CCC(O)(c2ccc(Cl)cc2)CC1)c1ccc(F)cc1 [haloperidol, reference compound] | – | < 11 mg/kg | – | < 11 mg/kg | < 11 mg/kg | potent activities | potent activity | very potent in producing catalepsy

— patent US5480892A, “(N-phthalimidoalkyl)piperidines” (The Du Pont Merck Pharmaceutical Company, priority 1994, dated 1996)
